{
  "source": "patent US20100029729A1",
  "about": "“COMPOUNDS” (priority 2008, published 2010)",
  "origin": "cited, not measured here",
  "key": {"[1]": {"tested_on": "circulating lymphocytes", "settings": "animals and man"}, "[2]": {"settings": "clinical studies, first 24 hours of treatment"}},
  "data": [
    {"smiles": "CCCCCCCCc1ccc(CCC(N)(CO)CO)cc1", "note": "[FTY720]", "values": [
      {"measurement": "effect on circulating lymphocytes", "setting": "[1]", "value": "reduce circulating lymphocytes in animals and man"},
      {"measurement": "bradycardia", "setting": "[2]", "value": "results in bradycardia in the first 24 hours of treatment"}
    ]}
  ]
}
